This is an account of results in ChEMBL document CHEMBL5154795, “Exploring the structure-activity relationships of diphenylurea as an antibacterial scaffold active against methicillin- and vancomycin-resistant Staphylococcus aureus” (Eur J Med Chem, 2022).

The test system of series [1] is Staphylococcus aureus. Briefly: Potentiation of vancomycin-induced antibacterial activity against vancomycin-resistant Staphylococcus aureus 3 assessed as vancomycin MIC at 0.5 times MIC incubated for 18 to 20 hrs by broth microdilution method. The format is functional. The note with it: time 18-20 hrs.
The subject of series [2] is Staphylococcus aureus. In words: Potentiation of vancomycin-induced antibacterial activity against vancomycin-resistant Staphylococcus aureus 12 assessed as vancomycin MIC at 0.5 times MIC incubated for 18 to 20 hrs by broth microdilution method. The format is functional. The note with it: time 18-20 hrs. On the technique in general: Dilution methods test growth across graded concentrations, often in twofold steps.

The subject of series [3] is Staphylococcus aureus. In words: Potentiation of vancomycin-induced antibacterial activity against vancomycin-resistant Staphylococcus aureus 3b assessed as vancomycin MIC at 0.5 times MIC incubated for 18 to 20 hrs by broth microdilution method. Type of series: functional. As to conditions: time 18-20 hrs.
Series [4] concerns Staphylococcus aureus. In words: Antibacterial activity against methicillin-resistant Staphylococcus aureus USA400 NRS 123 assessed as time of post-antibiotic effect at 5 times MIC incubated for 2 hrs followed by compound washout and measured every single 1 hr. Type of series: functional.
For series [5], the system named is Staphylococcus aureus. Briefly: Antibacterial activity against methicillin-resistant Staphylococcus aureus USA300 infected in BALB/c mouse assessed as reduction in bacterial count administered 72 hrs post infection topically twice daily for 4 days. Type of series: functional, organism-based. The note with it: time 4.0 day.
For series [6], the system named is Staphylococcus aureus. Briefly: Potentiation of vancomycin-induced antibacterial activity against vancomycin-resistant Staphylococcus aureus 2 assessed as vancomycin MIC at 0.5 times MIC incubated for 18 to 20 hrs by broth microdilution method. The format is functional. The note with it: time 18-20 hrs.
The subject of series [7] is Staphylococcus aureus. In words: Antibacterial activity against methicillin-sensitive Staphylococcus aureus ATCC 6538 incubated for 18 to 20 hrs by broth microdilution method. The format is functional. As to conditions: time 18-20 hrs.
Series [8] in a line: Hemolytic activity in rabbit erythrocytes at 32 ug/ml incubated for 30 min by absorbance based analysis relative to control. Type of series: toxicity, cell-based, Oryctolagus cuniculus, Erythrocyte. The note with it: at 32 µg/mL, read-out: Activity.
The subject of series [9] is Staphylococcus aureus. Briefly: Antibacterial activity against Vancomycin-resistant Staphylococcus aureus 10 incubated for 18 to 20 hrs by broth microdilution method. Type of series: functional. The note with it: time 18-20 hrs.
Series [10] relates to Staphylococcus aureus. In words: Antibacterial activity against Vancomycin-resistant Staphylococcus aureus 9 incubated for 18 to 20 hrs by broth microdilution method. Type of series: functional. The note with it: time 18-20 hrs.
The subject of series [11] is Staphylococcus aureus. Briefly: Antibacterial activity against methicillin-sensitive Staphylococcus aureus NRS 107 incubated for 18 to 20 hrs by broth microdilution method. Type of series: functional. As to conditions: time 18-20 hrs.
In series [12] the test system is Staphylococcus aureus. In words: Potentiation of vancomycin-induced antibacterial activity against vancomycin-resistant Staphylococcus aureus 9 assessed as vancomycin MIC at 0.5 times MIC incubated for 18 to 20 hrs by broth microdilution method. Type of series: functional. The note with it: time 18-20 hrs.
In series [13] the test system is Erythrocyte. In words: Hemolytic activity in rabbit erythrocytes at 128 ug/ml incubated for 30 min by absorbance based analysis. Type of series: toxicity, cell-based, Oryctolagus cuniculus. As to conditions: 0.5 h, dose 128 µg/ml.
Series [14] deals with Staphylococcus aureus. In words: Antibacterial activity against methicillin-resistant Staphylococcus aureus USA300 infected in BALB/c mouse assessed as reduction in bacterial count in spleen administered 72 hrs post infection topically twice daily for 4 days. The format is functional, organism-based. The note with it: time 4.0 day.
The subject of series [15] is Staphylococcus aureus. In words: Antibacterial activity against methicillin-resistant Staphylococcus aureus NRS 119 incubated for 18 to 20 hrs by broth microdilution method. Type of series: functional. The note with it: time 18-20 hrs.
Series [16] relates to Staphylococcus aureus. Briefly: Potentiation of vancomycin-induced antibacterial activity against vancomycin-resistant Staphylococcus aureus 10 assessed as vancomycin MIC at 0.5 times MIC incubated for 18 to 20 hrs by broth microdilution method. Type of series: functional. As to conditions: time 18-20 hrs.
Series [17] concerns Staphylococcus aureus. In words: Antibacterial activity against methicillin-resistant Staphylococcus aureus NRS 123 (USA400) incubated for 18 to 20 hrs by broth microdilution method. The note with it: time 18-20 hrs. Type of series: functional.
Series [18] deals with Staphylococcus epidermidis. Briefly: Antibacterial activity against Staphylococcus epidermidis NRS 101 incubated for 18 to 20 hrs by broth microdilution method. Type of series: functional. The note with it: time 18-20 hrs.
In series [19] the test system is Caco-2. In words: Cytotoxicity against human Caco-2 cells at 128 ug/ml incubated for 24 hrs by MTS assay. The format is toxicity, cell-based. As to conditions: caco-2, 24 h, dose 128 µg/ml. (In general: Formazan colour is commonly taken as a measure of viable cells.)
Series [20] relates to Staphylococcus aureus. In words: Antibacterial activity against methicillin-resistant Staphylococcus aureus USA300 infected in BALB/c mouse assessed as recovery of body weight loss administered 72 hrs post infection topically twice daily for 4 days. Type of series: functional, organism-based. The note with it: time 4.0 day.
Series [21] is described as follows: Hemolytic activity in rabbit erythrocytes at 64 ug/ml incubated for 30 min by absorbance based analysis relative to control. The note with it: at 64 µg/mL, read-out: Activity. The format is toxicity, cell-based, Oryctolagus cuniculus, Erythrocyte.
The test system of series [22] is Caco-2. Briefly: Cytotoxicity against human Caco-2 cells assessed as reduction in cell viability at 64 ug/ml incubated for 24 hrs by MTS assay. Type of series: toxicity, cell-based. The note with it: caco-2, 24 h, dose 64 µg/ml.
In series [23] the test system is Staphylococcus aureus. In words: Antibacterial activity against methicillin-resistant Staphylococcus aureus NRS 384 (USA300) incubated for 18 to 20 hrs by broth microdilution method. The format is functional. As to conditions: time 18-20 hrs.
Series [24] can be described thus: Cytotoxicity against human HaCaT cells assessed as cell viability at 64 ug/ml incubated for 24 hrs by MTS assay relative to control. Type of series: toxicity, cell-based. As to conditions: at 64 µg/mL, read-out: Activity.
Series [25] has as its system Staphylococcus aureus. In words: Potentiation of vancomycin-induced antibacterial activity against vancomycin-resistant Staphylococcus aureus 1 assessed as vancomycin MIC at 0.5 times MIC incubated for 18 to 20 hrs by broth microdilution method. Type of series: functional. As to conditions: time 18-20 hrs.
The test system of series [26] is Staphylococcus aureus. Briefly: Antibacterial activity against Vancomycin-resistant Staphylococcus aureus 12 incubated for 18 to 20 hrs by broth microdilution method. The format is functional. The note with it: time 18-20 hrs.
For series [27], the system named is Staphylococcus aureus. In words: Antibacterial activity against methicillin-resistant Staphylococcus aureus NRS 386 (USA700) incubated for 18 to 20 hrs by broth microdilution method. The note with it: time 18-20 hrs. The format is functional.
Series [28] deals with Staphylococcus aureus. In words: Antibacterial activity against methicillin-resistant Staphylococcus aureus NRS 385 (USA500) incubated for 18 to 20 hrs by broth microdilution method. Type of series: functional. As to conditions: time 18-20 hrs.
The subject of series [29] is Staphylococcus aureus. Briefly: Potentiation of vancomycin-induced antibacterial activity against vancomycin-resistant Staphylococcus aureus 13 assessed as vancomycin MIC at 0.5 times MIC incubated for 18 to 20 hrs by broth microdilution method. Type of series: functional. As to conditions: time 18-20 hrs.
Series [30] relates to Staphylococcus aureus. Briefly: microbe, parasite or virus in culture. The note with it: 13.
Series [31] has as its system Staphylococcus aureus. Briefly: microbe, parasite or virus in culture. As to conditions: 1.
Series [32] has as its system Staphylococcus aureus. In words: microbe, parasite or virus in culture. As to conditions: 2.
Series [33] relates to Staphylococcus aureus. In words: microbe, parasite or virus in culture. As to conditions: 3a.
In series [34] the test system is Staphylococcus aureus. Briefly: microbe, parasite or virus in culture. As to conditions: 3b.

Converted amounts (≈) assume the structure as drawn. The source made the active and inactive calls. No cut-off for these calls is given here.

Regarding `C/C(=N\NC(=N)N)c1ccc(NC(=O)Nc2ccc(/C=C/CC(C)C)cc2)cc1`, the MIC in [1] amounted to 2 µg/mL; in series [2] it was 64 µg/mL; in series [3], 8 µg/mL; in series [6] it was 4 µg/mL; in [7], 4 µg/mL (≈ 10.2 µM); in [9] it was 8 µg/mL (≈ 20.4 µM). Besides, the MIC in series [10] was 4 µg/mL (≈ 10.2 µM); in series [11], 4 µg/mL (≈ 10.2 µM); in [12] it was 16 µg/mL; in series [15] it was 4 µg/mL (≈ 10.2 µM); in series [16] it was 16 µg/mL; in series [17], 4 µg/mL (≈ 10.2 µM). Also, the MIC in [18] turned out to be 4 µg/mL (≈ 10.2 µM); in series [23], 2 µg/mL (≈ 5.1 µM); in series [25], 4 µg/mL; in [26] it was 8 µg/mL (≈ 20.4 µM); in series [27] it was 4 µg/mL (≈ 10.2 µM); in [28] it was 4 µg/mL (≈ 10.2 µM). For the same compound, the MIC in series [29] was 16 µg/mL. Moreover, the Time in [4] was 5 h. In addition, the outcome in [5], in series [14] and in series [20] was Active. The hemolysis at 0.5 h, 32 ug/ml in series [8] is < 10%. The Activity result is “Toxic” in series [13], “Toxic” in [19] and “Non-Toxic” in [22]. The hemolysis at 0.5 h, 64 ug/ml in series [21] came to 50%. The viability at 24 h, 64 ug/ml in series [24] turned out to be 100%.
For `CN[C@H](CC(C)C)C(=O)N[C@H]1C(=O)N[C@@H](CC(N)=O)C(=O)N[C@H]2C(=O)N[C@H]3C(=O)N[C@H](C(=O)N[C@H](C(=O)O)c4cc(O)cc(O)c4-c4cc3ccc4O)[C@H](O)c3ccc(c(Cl)c3)Oc3cc2cc(c3O[C@@H]2O[C@H](CO)[C@@H](O)[C@H](O)[C@H]2O[C@H]2C[C@](C)(N)[C@H](O)[C@H](C)O2)Oc2ccc(cc2Cl)[C@H]1O` [VANCOMYCIN], the MIC was > 512 µg/mL in series [30]; 64 µg/mL (≈ 44.2 µM) in [9]; 64 µg/mL (≈ 44.2 µM) in series [31]; > 64 µg/mL in series [10]; 64 µg/mL (≈ 44.2 µM) in series [32]; > 64 µg/mL in series [26]. Moreover, the MIC in series [33] and in series [34] was 64 µg/mL (≈ 44.2 µM) each time. Besides, the Time in [4] is 3 h.
